Measured values as given in US20260028334A1, “N-(3-(BENZO[B]THIOPHENE-2-CARBOXAMIDO)-PHENYL)-2,3-DIHYDROBENZO[B][1,4]DIOXINE-6-CARBOXAMIDE DERIVATIVES AND RELATED COMPOUNDS AS LACTATE/ATP PRODUCTION INHIBITORS FOR THE TREATMENT OF CANCER” (WMT Aktiengesellschaft, priority 2022, published 2026).

How the values were obtained:
[1] = test system: Panc02 and SKOV3 cells; experiment: Assay for inhibition of ATP production (FIGS. 8A and 8B); type: cell-based; conditions: 48 hours treatment, 1.5 to 10000 nM
Protocol: The assay determines the amount of ATP in cells in culture.
Cells were plated at 4,000 per well in 96-well plate in a medium of high glucose DMEM (PAN) supplemented with 10% FBS (PAN), 2 mM glutamine-alanine (PAN), 2 mM pyruvate (Sigma) and 10 mL/L penicillin-streptomycin and grown at 37° C. in 0.5% O2, 5% CO2 and 75% humidity. For hypoxia, cells were grown and treated in the Whitley H35 Hypoxystation (Don Whitley Scientific) at 37° C. in 0.5% O2, 5% CO2 and 75% humidity. The next day, cells were induced with test compounds (FIG. 1: compounds of examples 3/16, 3/8, 10 at 10000, 3333, 1111, 370, 123, 41, 14, 5 and 1.5 nM; FIGS. 8A and 8B: compounds of example 3/19, 30 and 30/2 at 10000, 3333, 1111, 370, 123, 41, 14, 5 and 1.5 nM), as well as with vehicle (DMSO) only, for 48 hours. After this time, the medium was removed from the cells and intracellular ATP levels were determined using the Promega CellTiter-Glo 2.0 assay protocol (Promega, G9241). To estimate the effect of compounds on the ATP production, sample values were compared to the values of DMSO only. IC50 values were generated by plotting the luciferase counts against compound concentration.

[2] = test system: HeLa, 4T1, LLC1, A549, MDA-MB-231 and MiaPaCa2 cells; experiment: Lactate production inhibition assay (FIG. 2); type: cell-based; conditions: 48 hours treatment, 1.5 to 10000 nM
Excerpt: Recombinant Lactate Dehydrogenase A (LDHA) was used to convert lactate in tissue culture supernatants to pyruvate, with the concomitant reduction of NAD^+ to NADH. The electron acceptor 1-methoxyphenazine methosulfate (MPMS) was then reduced by the generated NADH, thereby regenerating NAD+. Reduced 1-methoxyphenazine methosulfate is used in turn to reduce Water Soluble Tetrazolium 8 (WST8) to an orange WST8 formazan product. The assay is adapted from the publication “Application of WST-8 based colorimetric NAD(P)H detection for quantitative dehydrogenase assays” described in Chamchoy et al., BMC Biochemistry (2019) 20(1):4.
Cells were plated at 4,000 per well in 96-well plate in a medium of high glucose DMEM (PAN) supplemented with 10% FBS (PAN), 2 mM glutamine-alanine (PAN), 2 mM pyruvate (Sigma) and 10 mL/L penicillin-streptomycin (PAN) and grown at 37° C. in 0.5% O2, 5% CO2 and 75% humidity. For hypoxia, cells were grown and treated in the Whitley H35 Hypoxystation (Don Whitley Scientific) at 37° C. in 0.5% O2, 5% CO2 and 75% humidity. […] Thereafter, 80 μl of substrate mix is added to 20 μl of diluted cell supernatant in a 96-well flat-bottomed plate and the absorbance at 460 nm determined at one minute intervals over a 30 minute period. […]

Compound	ATP production level [1]	lactate production level [2]
O=C(Nc1ccc(F)c(NC(=O)c2cc3ccc(OCCCN4CCCC4)cc3s2)c1)c1ccc2c(c1)OCCO2 [3/8]	dose-dependent reduction	dose-dependent reduction
Cc1ccc(NC(=O)c2ccc3c(c2)OCCO3)cc1NC(=O)c1cc2cccnc2s1 [3/16]	dose-dependent reduction	dose-dependent reduction
